What was measured:
Details in all cases: 72 h
Caco-2 [1] = experiment: cell viability relative to DMSO; higher = less toxic
Calu-3 [2] = experiment: as above
HepG2 [3] = experiment: as above
U2OS [4] = experiment: as above
Vero E6 [5] = experiment: as above
Caco-2 [6] = experiment: relative viability EC50 (midpoint between 100% and the lowest measured viability); higher = less toxic
Calu-3 [7] = experiment: as above
HepG2 [8] = experiment: as above
U2OS [9] = experiment: as above
Vero E6 [10] = experiment: as above
Caco-2 [11] = experiment: drug sensitivity score (DSS) for viability; higher = more toxic; extreme values may be limits of the assay
Calu-3 [12] = experiment: as above
HepG2 [13] = experiment: as above
U2OS [14] = experiment: as above
Vero E6 [15] = experiment: as above

SMILES | cell viability (Caco-2 [1]; 1 nM) | cell viability (Caco-2 [1]; 10 nM) | cell viability (Caco-2 [1]; 100 nM) | cell viability (Caco-2 [1]; 1000 nM) | cell viability (Caco-2 [1]; 10000 nM) | cell viability (Calu-3 [2]; 1 nM) | cell viability (Calu-3 [2]; 10 nM) | cell viability (Calu-3 [2]; 100 nM) | cell viability (Calu-3 [2]; 1000 nM) | cell viability (Calu-3 [2]; 10000 nM) | cell viability (HepG2 [3]; 1 nM) | cell viability (HepG2 [3]; 10 nM) | cell viability (HepG2 [3]; 100 nM) | cell viability (HepG2 [3]; 1000 nM) | cell viability (HepG2 [3]; 10000 nM) | cell viability (U2OS [4]; 1 nM) | cell viability (U2OS [4]; 10 nM) | cell viability (U2OS [4]; 100 nM) | cell viability (U2OS [4]; 1000 nM) | cell viability (U2OS [4]; 10000 nM) | cell viability (Vero E6 [5]; 1 nM) | cell viability (Vero E6 [5]; 10 nM) | cell viability (Vero E6 [5]; 100 nM) | cell viability (Vero E6 [5]; 1000 nM) | cell viability (Vero E6 [5]; 10000 nM) | relative viability EC50 (Caco-2 [6]) | relative viability EC50 (Calu-3 [7]) | relative viability EC50 (HepG2 [8]) | relative viability EC50 (U2OS [9]) | relative viability EC50 (Vero E6 [10]) | drug sensitivity score (Caco-2 [11]) | drug sensitivity score (Calu-3 [12]) | drug sensitivity score (HepG2 [13]) | drug sensitivity score (U2OS [14]) | drug sensitivity score (Vero E6 [15])
Cn1cc(-c2ccc(S(=O)(=O)n3ccc(/C=C/C(=O)Nc4ccccc4N)c3)cc2)cn1 [4SC-202] | 85.2% | 96.9% | 102% | 73.4% | 42% | 91.7% | 86% | 78.7% | 45.9% | 23.8% | 88.5% | 102% | 92.7% | 52.4% | 25.8% | 95.8% | 96.6% | 102% | 72.5% | 13.3% | 96.7% | 104% | 91% | 69.9% | 30.8% | 1.07 µM | 0.26 µM | 0.623 µM | 1.36 µM | 1.12 µM | 6.6 | 13.3 | 10.1 | 8.8 | 7.2
COc1cc2c(CCNC(C)=O)c[nH]c2cc1Cl [6-chloromelatonin] | 96% | 98.3% | 92.7% | 98.1% | 91% | 99.5% | 96.5% | 98.9% | 105% | 98.3% | 107% | 97.2% | 94.7% | 90.5% | 98.9% | 100% | 101% | 101% | 101% | 99.3% | 97.8% | 93.8% | 96.2% | 89.9% | 102% | > 10 µM | > 10 µM | > 10 µM | > 10 µM | > 10 µM | 0 | 0 | 0 | 0 | 0
CCC(=O)NC1CCc2cccc(OC)c2C1 (stereo not given) [8-M-PDOT] | 100% | 99.5% | 99.3% | 98.7% | 119% | 109% | 112% | 102% | 97.6% | 112% | 100% | 94.6% | 101% | 99.1% | 102% | 104% | 97.9% | 103% | 101% | 109% | 99.6% | 106% | 98.5% | 103% | 106% | > 10 µM | > 10 µM | > 10 µM | > 10 µM | > 10 µM | 0 | 0 | 0 | 0 | 0
Nc1ncnc2c1ncn2[C@@H]1O[C@H](COP(=O)(O)OP(=O)(O)OP(=O)(O)O)[C@@H](O)[C@H]1O [ADENOSINE TRIPHOSPHATE DISODIUM] | 95.3% | 103% | 99.5% | 97.1% | 105% | 97% | 96.6% | 104% | 95.3% | 110% | 101% | 100% | 106% | 93.2% | 98.4% | 93.8% | 97.9% | 93.3% | 101% | 110% | 91.9% | 90.5% | 90.6% | 90.2% | 106% | > 10 µM | > 10 µM | > 10 µM | > 10 µM | > 10 µM | 0 | 0 | 0 | 0 | 0
